Test results as given in patent US11850220B2 (Augusta University Research Institute, Inc., priority 2020, dated 2023).

How the values were obtained:
[1] = system: carrageenan-induced paw edema; experiment: carrageenan-induced paw edema technique (anti-inflammatory); type: in vivo; conditions: for Observed (1/property): 1/(% inhibition of edema thickness at 3 h effect); for Observed (1/property): test concentration or dose not given here; for Potency (% Inhibition relative to indomethacin at 3 h effect): test concentration or dose not given here
Description: Anti-inflammatory properties of the ibuprofen-amino acid conjugate (5a-j) and ibuprofen-amino acid-4-aminophenol conjugates 7a-j were studied by the standard carrageenan-induced paw edema technique (Naumov, R. N. et al., Bioorg. Med. Chem. Lett. 2015, 25, 2314-2320; Tiwari, A. D. et al., Org. Biomol. Chem. 2014, 12, 7238-7249).

[2] = system: acetic acid-induced abdominal writhing; experiment: acetic acid-induced abdominal writhing technique (peripheral analgesic); type: in vivo; conditions: for Potency: Relative to indomethacin; for % Inhibition/protection / Writing reflex ± SEM: in vivo; for % Inhibition/protection: test concentration or dose not given here; for Writing reflex ± SEM: test concentration or dose not given here
[3] = system: hot plate; experiment: hot plate technique (central analgesic); type: in vivo; conditions: for Potency: Relative to indomethacin at 120 min.
[4] = % inhibition of edema thickness at 3 h effect, Table 7
[5] = anti-inflammatory property (% inhibition of edema at 3 h), Table 8

## CC(C)Cc1ccc(C(C)C(=O)NCCCC(=O)O)cc1 (stereo not drawn) [Compound 5d, 4-(2-(4-Isobutylphenyl)propanamido)butanoic acid]
[1]; Table 7
  Observed (1/property): 0.01667
[1]; 1 h
  % inhibition of edema: 22%
  Mean edema thickness: 0.96 ± 0.06 mm
[1]; 2 h
  % inhibition of edema: 28%
  Mean edema thickness: 1.09 ± 0.07 mm
[1]; 3 h
  % inhibition of edema: 60%
  Mean edema thickness: 0.52 ± 0.04 mm
[1]; 4 h
  % inhibition of edema: 13%
  Mean edema thickness: 1.09 ± 0.05 mm
[1]; 24 h
  % inhibition of edema: 58%
  Mean edema thickness: 0.08 ± 0.02 mm
[1]; [4]
  Observed property: 60%
[1]; [5]
  Observed property: 60%
[1]
  Potency (% Inhibition relative to indomethacin at 3 h effect): 75%
[2]
  Potency: 7
  % Inhibition/protection: 3.8%
  Writing reflex ± SEM: 93.6 ± 2.6
[3]; After 30 min.
  % protection: (34.7) %
  Latency period ± SEM: 3.26 ± 0.12 s
[3]; After 60 min.
  % protection: (19.3) %
  Latency period ± SEM: 2.66 ± 0.04 s
[3]; After 90 min.
  % protection: (13.2) %
  Latency period ± SEM: 2.49 ± 0.03 s
[3]; After 120 min.
  % protection: (8.2) %
  Latency period ± SEM: 2.37 ± 0.01 s
[3]
  Potency: 14
other
  melting point: 78.3 °C

## CC(C)Cc1ccc(C(C)C(=O)NCCC(=O)Nc2ccc(O)cc2)cc1 (stereo not drawn) [Compound 7c, N-(4-Hydroxyphenyl)-3-(2-(4-isobutylphenyl)propanamido)propanamide]
[1]; Table 7
  Observed (1/property): 0.01493
[1]; 1 h
  % inhibition of edema: 35%
  Mean edema thickness: 0.80 ± 0.03 mm
[1]; 2 h
  % inhibition of edema: 58%
  Mean edema thickness: 0.63 ± 0.03 mm
[1]; 3 h
  % inhibition of edema: 67%
  Mean edema thickness: 0.43 ± 0.02 mm
[1]; 4 h
  % inhibition of edema: 70%
  Mean edema thickness: 0.38 ± 0.01 mm
[1]; 24 h
  % inhibition of edema: 0%
  Mean edema thickness: 0.19 ± 0.02 mm
[1]; [4]
  Observed property: 67%
[1]; [5]
  Observed property: 67%
[1]
  Potency (% Inhibition relative to indomethacin at 3 h effect): 84%
[2]
  Potency: 115
  % Inhibition/protection: 63.0%
  Writing reflex ± SEM: 36.0 ± 1.3
[3]; After 30 min.
  % protection: (58.3) %
  Latency period ± SEM: 3.83 ± 0.03 s
[3]; After 60 min.
  % protection: (53.4) %
  Latency period ± SEM: 3.42 ± 0.12 s
[3]; After 90 min.
  % protection: (52.7) %
  Latency period ± SEM: 3.36 ± 0.15 s
[3]; After 120 min.
  % protection: (52.1) %
  Latency period ± SEM: 3.33 ± 0.11 s
[3]
  Potency: 92
other
  melting point: 155.5 °C

## CSCC[C@H](NC(=O)C(C)c1ccc(CC(C)C)cc1)C(=O)Nc1ccc(O)cc1 (stereo partly drawn) [Compound 7i, (2S)-N-(4-Hydroxyphenyl)-2-(2-(4-isobutylphenyl)propanamido)-4-(methylthio)butanamide]
[1]; Table 7
  Observed (1/property): 0.01786
[1]; 1 h
  % inhibition of edema: 34%
  Mean edema thickness: 0.81 ± 0.04 mm
[1]; 2 h
  % inhibition of edema: 48%
  Mean edema thickness: 0.79 ± 0.04 mm
[1]; 3 h
  % inhibition of edema: 56%
  Mean edema thickness: 0.57 ± 0.02 mm
[1]; 4 h
  % inhibition of edema: 49%
  Mean edema thickness: 0.64 ± 0.03 mm
[1]; 24 h
  % inhibition of edema: 5%
  Mean edema thickness: 0.18 ± 0.02 mm
[1]; [4]
  Observed property: 56%
[1]; [5]
  Observed property: 56%
[1]
  Potency (% Inhibition relative to indomethacin at 3 h effect): 70%
[2]
  Potency: 128
  % Inhibition/protection: 70.4%
  Writing reflex ± SEM: 28.8 ± 1.0
[3]; After 30 min.
  % protection: (86.4) %
  Latency period ± SEM: 4.51 ± 0.07 s
[3]; After 60 min.
  % protection: (90.1) %
  Latency period ± SEM: 4.24 ± 0.05 s
[3]; After 90 min.
  % protection: (97.7) %
  Latency period ± SEM: 4.35 ± 0.02 s
[3]; After 120 min.
  % protection: (121.5) %
  Latency period ± SEM: 4.85 ± 0.04 s
[3]
  Potency: 215
other
  melting point: 190.8 °C
